Earlier results on two compounds are cited in patent publication US8021659B2, “Coenzyme Q10, lactoferrin and angiogenin compositions and uses thereof” (Naidu LP, priority 2006, dated 2011).

For data set [1] the following is noted: human plasma.

Where two headings read alike, the source gives them in different places. Some results are limits rather than exact numbers.

As to “AGN: 14-kDa, basic heparin-binding protein and a member of the pancreatic ribonuclease superfamily”, the “half-life (turnover rate)” value in data set [1] is reported as less than 5 min.
Consider `COC1=C(OC)C(=O)C(C/C=C(\C)CC/C=C(\C)CC/C=C(\C)CC/C=C(\C)CC/C=C(\C)CC/C=C(\C)CC/C=C(\C)CC/C=C(\C)CC/C=C(\C)CCC=C(C)C)=C(C)C1=O` [CoQ-10, 2,3-dimethoxy-5-methyl-6-decaprenyl-1,4-benzoquinone], for which, for the setting “excretion primarily through the biliary tract”, the elimination half-life result is reported as “approximately 34 hours”. Moreover, the “time to peak levels of CoQ-10 in the plasma” value (following oral administration) is 5 to 10 h. Moreover, the “orally administered CoQ-10 excreted in the feces” value (oral administration) was “more than 60%”. Also, the serum concentrations is 700 to 1000 ng/mL (regular doses of 30-60 mg/day) and 2000 to 3000 ng/mL (therapeutic doses of 100-200 mg/day).
